Calls of active or inactive are those of the source.
Assays:
[1] = viability inhibitors of stage V gametocytes – luminescence, dose response (AID 1117278); assay type: functional, cell-based;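 further: gametocytes exposed to compound for 24 hours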
[2] = viability loss in human Jurkat cells – cell-based, luminescence, cytotoxicity control for P. falciparum gametocyte viability project, dose response (AID 1117277); assay type: functional;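 further: potency reflects loss of cellular ATP meaning fewer viable cells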
[3] = CellTiter-Glo luminescence survival assay, SW480 colon tumor line, concentration-response curve, half-maximal inhibitory concentration (AID 1117338); assay type: functional
[4] = RKO cell viability reduction, dose response, CellTiter-Glo luminescence (AID 1117322); assay type: functional
[5] = cytotoxicity toward HCT116 cells – cell-based, CellTiter-Glo luminescence, IC50, dose response (AID 1117332); assay type: functional; details: HCT-116
[6] = SNU-C1 cell viability reduction, dose response, CellTiter-Glo luminescence (AID 1117323); assay type: functional, cell-based
[7] = cytotoxicity toward Colo320 cells – cell-based, CellTiter-Glo luminescence, IC50, dose response (AID 1117334); assay type: functional; details: COLO 320
[8] = cytotoxicity toward HT-29 cells – cell-based, CellTiter-Glo luminescence, IC50, dose response (AID 1117330); assay type: functional
[9] = HCT116 cell viability decrease, GSK3B pretreatment – CellTiter-Glo, IC50, dose response (AID 1117339); assay type: functional; details: HCT-116
[10] = biological target: Disintegrin and metalloproteinase domain-containing protein 17 (Homo sapiens, UniProt P78536); assay: exosite inhibitors of ADAM17, dose response, biochemical (AID 743260)
[11] = inhibition of ADAM10 peptide cleavage – biochemical, FRET peptide substrate, recombinant human ADAM10, selectivity assay for ADAM17 exosite inhibitor project, dose response (AID 743259);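 further: ADAM10 enzyme cleaving a FRET peptide substrate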
[12] = biological target: T1, Mannose-6-phosphate isomerase (Homo sapiens, UniProt P34949); assay: MPI inhibition at elevated mannose 6-phosphate – biochemical, fluorescence intensity, high mannose 6-phosphate, primary screen (AID 1220)
T1 sequence (P34949 whole entry): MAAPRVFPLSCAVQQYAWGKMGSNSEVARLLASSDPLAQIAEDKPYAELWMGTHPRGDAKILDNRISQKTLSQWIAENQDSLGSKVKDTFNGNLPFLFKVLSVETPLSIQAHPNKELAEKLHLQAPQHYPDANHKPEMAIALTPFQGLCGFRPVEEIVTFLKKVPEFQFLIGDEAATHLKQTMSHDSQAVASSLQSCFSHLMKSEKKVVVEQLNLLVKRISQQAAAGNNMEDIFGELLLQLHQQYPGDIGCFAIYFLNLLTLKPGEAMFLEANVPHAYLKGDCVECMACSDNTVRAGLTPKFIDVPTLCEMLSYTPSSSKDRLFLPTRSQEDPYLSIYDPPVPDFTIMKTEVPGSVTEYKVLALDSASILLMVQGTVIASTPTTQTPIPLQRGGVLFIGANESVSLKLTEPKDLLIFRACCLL

Paired box protein Pax-8 = Paired box protein Pax-8 (Homo sapiens, UniProt Q06710); assay: PAX8 transcriptional activity inhibition in RMG-I – RMG-I cells, luciferase, cherry-pick, dose response (AID 687027); assay type: functional, cell-based;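 further: luciferase reporter driven by Pax8 target thyroperoxidase promoter measured by SteadyGlo luminescence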
[13] = reduced cellular PGC1a acetyl-lysine signal – cell-based, cherry-picked samples, dose response (AID 720514); assay type: functional;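 further: potency may reflect raised or lowered acetylation signal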
[14] = OVCAR8 cell viability loss – plate reader, dry powder samples, PAX8 project, dose response (AID 743197); assay type: functional, cell-based; details: OVCAR-8
[15] = biological target: Bifunctional protein GlmU (Mycobacterium tuberculosis, UniProt P9WMN3); assay: Inhibitors of Mycobacterial Glucosamine-1-phosphate acetyl transferase (GlmU). Secondary screen.; parameters: species or system Mycobacterium tuberculosis H37Rv
[16] = test system: Streptococcus sp. 'group A'; assay: Streptococcus pyogenes SK(-)GAS viability under kanamycin – luminescence, BacTiterGlo, confirmation, counter-screen for streptokinase expression inhibitor project, dose response (AID 1900); assay type: functional, organism-based
Streptokinase A = biological target: T2, Streptokinase A (Streptococcus pyogenes serotype M1, UniProt P10520); assay: viability-normalized secreted streptokinase activity reduction – plasminogen activation absorbance, OD405, dose response (AID 1914); assay type: functional, Streptococcus pyogenes M1 GAS;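 further: secreted streptokinase activity via plasminogen activation per viability signal from cell pellet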
T2 sequence (P10520 whole entry): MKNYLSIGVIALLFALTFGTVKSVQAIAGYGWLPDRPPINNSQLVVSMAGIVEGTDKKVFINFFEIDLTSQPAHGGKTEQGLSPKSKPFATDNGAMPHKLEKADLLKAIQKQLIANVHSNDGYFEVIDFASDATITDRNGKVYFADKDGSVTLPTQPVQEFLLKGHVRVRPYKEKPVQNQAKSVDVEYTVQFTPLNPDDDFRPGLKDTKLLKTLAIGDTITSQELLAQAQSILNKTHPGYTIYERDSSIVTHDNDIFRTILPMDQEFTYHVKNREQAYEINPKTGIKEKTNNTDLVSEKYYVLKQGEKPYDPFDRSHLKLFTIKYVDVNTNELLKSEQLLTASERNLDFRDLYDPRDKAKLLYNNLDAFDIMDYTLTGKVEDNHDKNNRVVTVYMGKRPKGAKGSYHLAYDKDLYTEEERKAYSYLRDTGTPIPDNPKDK

Streptococcus = assay: GAS UMAA2166 growth inhibition – luminescence, BacTiterGlo, counter-screen for streptokinase expression inhibitor project, dose response (AID 1915); assay type: functional, organism-based;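 further: potency for reduction of bacterial viability or growth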
[17] = viability loss in Vero cells – cytotoxicity control for Vif-APOBEC3G degradation inhibitor project, dose response (AID 1117358); assay type: functional; details: Vero

Disintegrin and metalloproteinase domain-containing protein 17, sequence (P78536 whole entry, the tested form may be a part): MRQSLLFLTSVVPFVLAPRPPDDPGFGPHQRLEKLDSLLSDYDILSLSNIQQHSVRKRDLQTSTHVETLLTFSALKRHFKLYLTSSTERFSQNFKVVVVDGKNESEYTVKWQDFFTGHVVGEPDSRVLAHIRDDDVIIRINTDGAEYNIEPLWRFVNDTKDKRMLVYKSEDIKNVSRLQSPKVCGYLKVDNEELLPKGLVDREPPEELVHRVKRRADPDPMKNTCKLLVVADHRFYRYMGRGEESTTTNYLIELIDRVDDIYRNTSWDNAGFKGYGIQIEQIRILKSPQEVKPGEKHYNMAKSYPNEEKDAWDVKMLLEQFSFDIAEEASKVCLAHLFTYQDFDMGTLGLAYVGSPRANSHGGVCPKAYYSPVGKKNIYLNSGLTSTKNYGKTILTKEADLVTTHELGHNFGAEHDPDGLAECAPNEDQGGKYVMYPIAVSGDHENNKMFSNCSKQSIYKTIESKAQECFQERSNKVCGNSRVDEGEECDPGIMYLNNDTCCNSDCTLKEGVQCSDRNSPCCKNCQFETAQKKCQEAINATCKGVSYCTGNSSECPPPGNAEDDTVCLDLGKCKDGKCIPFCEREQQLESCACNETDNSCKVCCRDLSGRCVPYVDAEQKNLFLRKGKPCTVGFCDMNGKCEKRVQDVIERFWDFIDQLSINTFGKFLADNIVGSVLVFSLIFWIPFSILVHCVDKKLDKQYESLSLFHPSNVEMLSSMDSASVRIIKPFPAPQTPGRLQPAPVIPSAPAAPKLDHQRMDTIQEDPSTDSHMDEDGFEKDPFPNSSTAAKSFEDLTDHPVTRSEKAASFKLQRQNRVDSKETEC
Paired box protein Pax-8, sequence (Q06710 whole entry): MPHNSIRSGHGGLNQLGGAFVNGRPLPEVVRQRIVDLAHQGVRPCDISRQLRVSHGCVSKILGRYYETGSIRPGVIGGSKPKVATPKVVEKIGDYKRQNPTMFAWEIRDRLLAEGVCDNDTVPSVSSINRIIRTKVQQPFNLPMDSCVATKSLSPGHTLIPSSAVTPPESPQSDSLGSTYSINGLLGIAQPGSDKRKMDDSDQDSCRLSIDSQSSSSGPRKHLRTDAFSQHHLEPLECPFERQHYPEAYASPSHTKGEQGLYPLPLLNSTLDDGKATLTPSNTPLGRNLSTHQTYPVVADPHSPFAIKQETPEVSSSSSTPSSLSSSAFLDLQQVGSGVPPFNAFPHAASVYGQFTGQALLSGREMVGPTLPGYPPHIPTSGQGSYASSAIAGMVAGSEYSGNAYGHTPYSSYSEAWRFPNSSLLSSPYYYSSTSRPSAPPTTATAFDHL
Bifunctional protein GlmU, sequence (P9WMN3 whole entry): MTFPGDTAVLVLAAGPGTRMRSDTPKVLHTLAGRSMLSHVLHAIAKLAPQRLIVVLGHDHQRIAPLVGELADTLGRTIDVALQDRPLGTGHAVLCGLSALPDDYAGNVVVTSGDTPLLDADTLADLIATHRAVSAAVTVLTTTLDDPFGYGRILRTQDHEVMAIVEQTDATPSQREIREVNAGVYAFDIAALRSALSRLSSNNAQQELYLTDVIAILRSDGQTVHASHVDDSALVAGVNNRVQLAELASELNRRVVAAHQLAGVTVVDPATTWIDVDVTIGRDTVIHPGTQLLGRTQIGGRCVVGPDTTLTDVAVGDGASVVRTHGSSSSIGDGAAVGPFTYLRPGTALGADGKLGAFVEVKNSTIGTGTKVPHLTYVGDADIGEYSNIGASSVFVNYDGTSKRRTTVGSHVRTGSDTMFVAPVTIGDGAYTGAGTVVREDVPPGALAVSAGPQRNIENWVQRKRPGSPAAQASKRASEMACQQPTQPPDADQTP

With `O=c1c2ccccc2ncn1CCCCOc1ccc(Br)cc1` the IC50 [1] was > 109 µM (inactive) and the IC50 [2] was > 83.3 µM (inactive).
For `[H]/C=C\c1c(C)c2cc3nc(cc4[nH]c(cc5nc(cc1[nH]2)C(C)=C5CCC(=O)O)c(CCC(=O)OC)c4C)[C@@]1(C)C3=CC=C(C(=O)OC)[C@@H]1C(=O)OC`, the IC50 [3] was > 6.67 µM (inactive), the IC50 [4] was 3.53 µM (active) and the IC50 [5] was 5.65 µM (inactive). For the same compound, the IC50 [6] was 5.85 µM (inactive), the IC50 [7] was 9.62 µM (inactive) and the IC50 [8] was 3.94 µM (active). The IC50 [9] was 4.26 µM (active).
In the case of `CCOC(=O)C1=CN(Cc2cccc(F)c2)S(=O)(=O)NC1c1ccc2ccccc2c1` (stereo not given), the IC50 [10] is reported as > 69.5 µM (inactive) and the IC50 [11] is reported as > 7.73 µM (active).
With `O=[N+]([O-])c1c(NCCO)cc(N2CCCCC2)c2nonc12` the IC50 [12] was > 50 µM (not active).
For `C[C@@H]1CCCCO[C@H](CN(C)Cc2ccc(Cl)c(Cl)c2)[C@H](C)CN([C@@H](C)CO)C(=O)c2cc(NC(=O)Nc3ccc(F)cc3)ccc2O1`, the AC50 (Paired box protein Pax-8) was 11.3 µM (active), the AC50 [13] was 14.3 µM (active) and the AC50 [14] was 65.1 µM (active).
In the case of `O=C1CCCC(=O)C1=NNc1cccc(C(=O)O)c1`, the IC50 [15] is reported as 120 µM (active).
In the case of `O=c1c2c(nc(NCCO)n1CC1CCCCC1)-c1ccccc1CC21CCCC1`, the EC50 [16] is reported as 2.67 µM (active), the EC50 (Streptokinase A) is reported as 3.48 µM (active) and the EC50 (Streptococcus) is reported as 19.3 µM (inconclusive). For the same compound, the CC50 [17] was > 40 µM (active).

— ChEMBL document CHEMBL1201862, “PubChem BioAssay data set” (2004)
